Results reported in patent EP3443956A1, “A COMPOUND INCREASING ENDOCANNABINOIDS CONCENTRATION IN A SUBJECT FOR USE FOR PREVENTING AND/OR TREATING A SOCIAL BEHAVIOR DISORDER” (INSTITUT NATIONAL DE LA SANTE ET DE LA RECHERCHE MEDICALE …, priority 2017, dated 2019).
Where two headings read alike, the source gives them in different places.

Assays:
[1] = tested on: adult rats; type: in vivo, rat
Method: Wistar female rats (Charles River, France) weighing 250-280 g were housed at constant room temperature (20 ± 1°C) and humidity (60%), and exposed to a light cycle of 12 h/day (08:00 a.m. to 08:00 p.m.), with food and water available ad libitum. For mating, pairs of females were placed with single male rats in the late afternoon. Vaginal smears were taken the following morning at 09:00 a.m. The day on which sperm was present was designated as the day 0 of gestation (GD 0).
(§1) Treatment was performed daily with the CB1 R receptor agonist WIN55,212-2 (0.5 mg/kg) or Delta9-Tetrahydrocannabinol (THC, 5 mg/kg) or their respective vehicles from GD 5 to GD 20. WIN55,212-2 was suspended in 5% DMSO, 5% cremophor and saline, and injected s.c. at a volume of 1 ml/kg. Control dams (Sham group) received a similar volume injection of vehicle solution. THC was suspended in 5% Ethanol, 5% cremophor and saline, and injected s.c. at a volume of 1 ml/kg.
(§2) Pups were weaned at 21 days of age. For behavioral and electrophysiological experiments male and female rats were tested at adulthood (postnatal day 90-120).
The test was performed in a sound attenuated chamber under dim light conditions. The testing arena consisted of a Plexiglas cage measuring 45 × 45 cm, with 2 cm of wood shavings covering the floor. Social behavior was assessed as previously described (Trezza et al., 2012).
Briefly, adult rats were individually habituated to the test cage for 5 min (adult rats) on each of the 2 days prior to testing. Before testing, adult animals were socially isolated for 24 h, respectively, to enhance their social motivation and thus facilitate the expression of social behaviors during testing. Drug treatments were counterbalanced so that cage mates were allocated to different treatment groups. […] Behavior was assessed per pair of animals and analyzed by a trained observer who was unaware of treatment condition using the Ethovision XT video tracking software (Noldus, Wageningen, The Netherlands).
The test consisted of placing two similarly treated animals into the test cage for 10 min (adult rats). In rats, a bout of social play behavior starts with one rat soliciting ('pouncing') another animal, by attempting to nose or rub the nape of its neck. The animal that is pounced upon can respond in different ways. If the animal that is pounced upon fully rotates to its dorsal surface, 'pinning' is the result, i.e., one animal lying with its dorsal surface on the floor with the other animal standing over it. From this position, the supine animal can initiate another play bout, by trying to gain access to the other animal's neck. Thus, during social play, pouncing is considered an index of play solicitation, while pinning can be regarded as the terminal component of a single play bout as well as a releaser of a prolonged play bout. Pinning and pouncing frequencies can be easily quantified and they are considered to be the most characteristic parameters of social play behavior in rats. During the social encounter, animals may also display social behaviors not directly associated with play, such as sniffing or grooming the partner's body. A pair of rats was considered as one experimental unit. […]

[2] = tested on: eCB-LTD of excitatory synapses onto layer 5 mPFC pyramidal neurons; experiment: Field potential recordings of eCB-LTD in mPFC slices; design: species or system rat
Method: as §1, §2
Adult male and female rats were anesthetized with isoflurane and killed as previously described (Martin and Manzoni, 2014). The brain was sliced (300 µm) in the coronal plane with a vibratome (Integraslice, Campden Instruments) in a sucrose-based solution at 4°C (in mm as follows: 87 NaCl, 75 sucrose, 25 glucose, 2.5 KCI, 4 MgCl2, 0.5 CaCl2, 23 NaHCO3 and 1.25 NaH2PO4). Immediately after cutting, slices containing the medial prefrontal cortex (PFC) or accumbens were stored for 1 h at 32°C in a low calcium ACSF that contained (in mm) as follows: 130 NaCl, 11 glucose, 2.5 KCI, 2.4 MgCl2, 1.2 CaCl2, 23 NaHCO3, 1.2 NaH2PO4, and were equilibrated with 95% 02/5% CO2 and then at room temperature until the time of recording.
Field potential recordings were made in coronal slices containing the mPFC or the accumbens as previously described (Robbe et al., 2002). During the recording, slices were placed in the recording chamber and superfused at 2 ml/min with either low Ca2+ ACSF for mPFC or normal ACSF for the accumbens. All experiments were done at 32°C or room temperature for mPFC and accumbens, respectively. The superfusion medium contained picrotoxin (100 µM) to block GABA Type A (GABA-A) receptors. All drugs were added at the final concentration to the superfusion medium.
For extracellular field experiments, the recording pipette was filled with ACSF.
Both fEPSP area and amplitude were analyzed. Stimulation was performed with a glass electrode filled with ACSF and the stimulus intensity was adjusted ∼60% of maximal intensity after performing an input-output curve (baseline EPSC amplitudes ranged between 50 and 150 pA). Stimulation frequency was set at 0.1 Hz.
The magnitude of plasticity was calculated 38-40 min after induction as percentage of baseline responses. Statistical analysis of data was performed with Prism (GraphPad Software) using tests indicated in the main text after outlier subtraction. All values are given as mean ± SEM, and statistical significance was set at p < 0.05.

[3] = tested on: eCB-LTD of excitatory synapses onto medium spiny neurons (MSNs); experiment: Field potential recordings of eCB-LTD in accumbens slices
[4] = Sham adult female rats, capsazepine 5 mg/Kg i.p., 30 min before testing

Compound: NC(=O)c1cccc(-c2cccc(OC(=O)NC3CCCCC3)c2)c1 [URB597, (3'-(aminocarbonyl)[1,1'-biphenyl]-3-yl)-cyclohexylcarbamate]
- social interaction (social deficits) ([1]; adult male rats exposed in utero to WIN55,212-2, URB597 0.1 mg/kg i.p., 2 h before testing): ameliorated social deficits
- restoration of eCB-LTD in the PFC ([2]; adult male rats exposed in utero to WIN55,212-2, slices incubated with URB597 2 µM for 45-90 min before LTD induction): sufficient to restore eCB-LTD

Compound: Cc1c(C(=O)c2cccc3ccccc23)c2cccc3c2n1[C@H](CN1CCOCC1)CO3 [WIN55,212-2]
- distance travelled during the test ([1]; rat, in vivo): 3779 ± 228.8 cm
- contact with congeners (total frequency of social interaction) ([1]; rat, in vivo, sc): had less contact with their congeners
- time in social interactions ([1]; rat, in vivo, sc): spent less time in social interactions
- total frequency of social interaction ([1]; rat, in vivo, sc): no difference
- total time of social interaction ([1]; rat, in vivo, sc): no difference
- eCB-LTD in accumbens [3]: robust eCB-LTD

Compound: N#Cc1cc2[nH]c(=O)c(=O)[nH]c2cc1[N+](=O)[O-] [CNQX]
- effect on the field EPSP (fEPSP) ([2]; CNQX 20 µM at the end of the experiments, data not shown): specifically blocked the synaptic component without altering the nonsynaptic component

Compound: Oc1cc2c(cc1O)CN(C(=S)NCCc1ccc(Cl)cc1)CCC2 [capsazepine, N-[2-(4-Chlorophenyl)ethyl]-1,3,4,5-tetrahydro-7,8-dihydroxy-2H-2-benzazepine-2-carbothioamide]
- frequency of social interaction [1, 4]: reduced
- total time of social interaction [1, 4]: reduced
- effect on the curating effects of URB597 on social interaction ([1]; adult rats exposed in utero to WIN55,212-2, capsazepine with URB597 0.1 mg/kg i.p.): did not block the curating effects of URB597
- effect on LTD in mPFC ([2]; Sham adult female rats, slices preincubated for 45 min in 10 µM capsazepine): completely blocked LTD

Compound: Cc1c(C(=O)NN2CCCCC2)nn(-c2ccc(Cl)cc2Cl)c1-c1ccc(Cl)cc1 [SR141716, 5-(4-chloro-phenyl)-1-(2,4-dichlorophenyl)-4-methyl-N-1-piperidinyl-1H-pyrazole-3-carboxamide]
- effect on the curating actions of URB597 on social interaction ([1]; adult male rats exposed in utero to WIN55,212-2, SR141716 1 mg/kg i.p. 30 min before URB597 0.1 mg/Kg i.p.): prevented the curating actions of URB597
- effect of the antagonist by itself on social interaction ([1]; adult rats, SR141716 1 mg/kg i.p.): did not induce effects by itself
- effect on LTD in mPFC ([2]; Sham adult male rats, slices preincubated for 45 min in 5 µM SR141716): completely blocked LTD
- effect on LTD of evoked EPSPs in mPFC ([2]; adult females exposed in utero to WIN55,212-2, slices preincubated for 45 min in 5 µM SR141716): not mediated by CB1 R receptors
- block of the URB597 rescue of eCB-LTD ([2]; adult male rats exposed in utero to WIN55,212-2, URB597 2 µM plus SR141716 5 µM): blocked the URB597 rescue
